# From patent publication US9243247B2, “Composition for promoting apoptosis or inhibiting cell growth, comprising epstein-barr virus microrna” (Catholic University Industry Academic Cooperation Foundation, priority 2011, dated 2016)
# Columns and labels:
# Format in all cases: cell-based
# [1] = system: AGS cell strain; experiment: Cell growth test (CCK-8 assay) after transfection of BART miRNA mimics; details: mimic 10 nM, 72 hours after transfection, relative to scrambled control (=1)
# Description: An AGS cell strain (Korean Cell Line Bank), which is a stomach cancer cell strain, was cultured in an RPMI1640 (Gibco) culture medium including 10% fetal bovine serum. Mature type synthesized BART miRNAs were transfected to the AGS cell strain by using G-fectin (Genolution) according to a protocol of the manufacture.
# To investigate the effect of individual EBV BART miRNAs on the AGS cell strain, the synthesized miRNAs were transfected to the AGS cell strain and, after 72 hours, cells were counted by CCK-8 assay.
# Immediately after the AGS cell strain, which is an EBV-negative cell strain, was divided into 96-well plate having 1×10^3 cells/well, a synthesized miRNA (10 nM) was transfected by using G-fectin. After the transfection, according to the experimental objective, the cells were cultured at 37° C. in an incubator, and then CCK-8 was divided among the wells by allocating 10 μl of CCK-8 to each well and the resulting mixture was cultured in an incubator at 37° C. for two hours. Then, the light absorbance was measured with an ELISA measuring instrument.
# By the method described in Example 3, miR-BART5-5p mimic or miR-BART15-3p mimic (10 nM) were transfected to the AGS cell strain, and the effect thereof on cell growth was investigated over time.
# miR-BART5-5p, miR-BART15-3p, and miR-BART20-3p were transfected to the AGS cell strain (1×10^3 cells/well) in a concentration of 1, 3, 10, and 30 nM, and the effect on cell growth was investigated. Immediately after the AGS cell strain was divided into a 96-well plate such that 1×10^3 AGS cells were allocated to each well, a synthesized miRNA was transfected by using G-fectin. Seventy two hours after the transfection, CCK-8 was divided among the wells by allocating 10 μl of CCK-8 to each well, and the resulting mixture was cultured at 37° C. in an incubator for two hours.
# [2] = system: AGS cell strain; experiment: Effect on cell cycle (propidium iodide staining, FACS, sub G1); details: mimic 10 nM, 10 uM 5-FU 24 h after transfection, then 48 hours, relative to scrambled control (=1)
# Description: The AGS cells were divided into a 96-well plate such that 2×10^5 AGS cells were allocated to each well, and synthesized miRNAs (10 nM) were transfected and cultured at 37° C. in an incubator. Twenty four hours after the transfection, 10 uM of 5-FU, which is an anti-cancer agent, was treated in one case or not treated in another case, and then the resulting mixture was cultured in an incubator at 37° C. for 48 hours. The cells were detached by using Trypsin-EDTA and washed with PBS two times.
# Immediately after the AGS cell strains, which are EBV-negative cell strains, were divided into a 6-well plate such that 2×10^5 AGS cells were allocated to each well, a synthesized miRNA (10 nM) was transfected by using G-fectin and cultured at 37° C. in an incubator. Twenty four hours after the transfection, 10 uM of 5-FU was treated and the resulting mixture was cultured at 37° C. in an incubator for 48 hours. The cells were detached by using Trypsin-EDTA and washed with PBS two times. Afterwards, DNA was stained by propidium iodide staining and the ratio of cells where cell cycle was changed was investigated by FACS.
# [3] = system: AGS cell strain; experiment: Measurement of apoptosis (Annexin V staining, FACS); details: for Relative Apoptotic cell: AGS, mimic 10 nM, 10 uM 5-FU 24 h after transfection, then 48 hours, Annexin V, relative to scrambled control (=1), n=9; for effect on cell growth and apoptosis (summary statement): mimics transfected to AGS, tumor cell strain not infected with EBV
# Description: Immediately after the AGS cell strain, which is an EBV-negative cell strain, was divided was divided into a 6-well plate such that 2×10^5 AGS cells were allocated to each well, a synthesized miRNA (10 nM) was transfected by using G-fectin and the resulting mixture was cultured at 37 t in an incubatorTwenty four hours after the transfection, 10 uM of 5-FU was treated and the resulting mixture was cultured in an incubator at 37° C. for 48 hours. The cells were detached by using Trypsin-EDTA and washed with PBS two times. Afterwards, the cells were treated with a PE Annexin V Apoptosis Detection Kit and the changed ratio of apoptotic cell was investigated by FACS (FIG. 7).
# Immediately after the AGS cell strain, which is an EBV-negative cell strain, is divided into a 6-well plate such that 2×10^5 AGS cells were allocated to each well, a synthesized miRNA (10 nM) was transfected by using G-fectin and the resulting mixture was cultured at 37° C. Twenty four hours after the transfection, 10 uM of 5-FU, which is an anti-cancer agent, was treated and the resulting mixture was cultured in an incubator at 37° C. for 48 hours. The cells were detached by using Trypsin-EDTA and washed with PBS two times. Afterwards, the cells were treated with a PE Annexin V Apoptosis Detection Kit and the ratio of cells where apoptosis took place was measured by FACS.
substance,measurement,setting,value
"BART14-3p: EBV BART miRNA mimic, double stranded RNA; sense SEQ NO: 83, antisense SEQ NO: 84 (sense UAAAUGCUGCAGUAGUAGGGAU; antisense AUCCCUACUACUGCAGCAUUUA; chemistry not given here)",Relative Cell Growth,[1]; n=9,1.447
same,Relative Sub G1,[2],0.8757
same,Relative Apoptotic cell,[3],0.9426
"BART14-5p: EBV BART miRNA mimic, double stranded RNA; sense SEQ NO: 81, antisense SEQ NO: 82 (sense UACCCUACGCUGCCGAUUUACA; antisense UGUAAAUCGGCAGCGUAGGGUA; chemistry not given here)",Relative Cell Growth,[1]; n=9,1.408
same,Relative Sub G1,[2],0.9076
same,Relative Apoptotic cell,[3],1.054
"BART15-5p: EBV BART miRNA mimic, double stranded RNA; sense SEQ NO: 13, antisense SEQ NO: 14 (sense AGGGAAACAUGACCACCUGAAGUC; antisense GACUUCAGGUGGUCAUGUUUCCCU; chemistry not given here)",Relative Cell Growth,[1]; n=9,0.9545
same,Relative Sub G1,[2],0.8195
same,Relative Apoptotic cell,[3],1.022
"BART16-3p: EBV BART miRNA mimic, double stranded RNA; sense SEQ NO: 23, antisense SEQ NO: 24 (sense AUCACCACCCUCUAUCCAUAU; antisense AUAUGGAUAGAGGGUGGUGAU; chemistry not given here)",Relative Cell Growth,[1]; n=9,1.159
same,Relative Sub G1,[2],0.9852
same,Relative Apoptotic cell,[3],1.37
same,Relative Apoptotic cell,[3]; listed as 16-3p,significantly higher
same,effect on cell growth and apoptosis (summary statement),[3],inhibit cell growth and promote apoptosis
"BART16-5p: EBV BART miRNA mimic, double stranded RNA; sense SEQ NO: 21, antisense SEQ NO: 22 (sense UUAGAUAGAGUGGGUGUGUGCUCU; antisense AGAGCACACACCCACUCUAUCUAA; chemistry not given here)",Relative Cell Growth,[1]; n=9,0.705
same,Relative Cell Growth,"[1]; n=9, listed as miR-BART16-5p",inhibited cell growth
same,Relative Sub G1,[2],1.182
same,Relative Sub G1,[2]; listed as 16-5p,increased
same,Relative Apoptotic cell,[3],1.312
same,Relative Apoptotic cell,[3]; listed as 16-5p,significantly higher
same,effect on cell growth and apoptosis (summary statement),[3],inhibit cell growth and promote apoptosis
"BART17-3p: EBV BART miRNA mimic, double stranded RNA; sense SEQ NO: 27, antisense SEQ NO: 28 (sense UGUAUGCCUGGUGUCCCCUUAGU; antisense ACUAAGGGGACACCAGGCAUACA; chemistry not given here)",Relative Cell Growth,[1]; n=9,0.7865
same,Relative Cell Growth,"[1]; n=9, listed as miR-BART17-3p",inhibited cell growth
same,Relative Sub G1,[2],1.067
same,Relative Sub G1,[2]; listed as 17-3p,increased
same,Relative Apoptotic cell,[3],1.088
same,Relative Apoptotic cell,[3]; listed as 17-3p,significantly higher
same,effect on cell growth and apoptosis (summary statement),[3],inhibit cell growth and promote apoptosis
"BART17-5p: EBV BART miRNA mimic, double stranded RNA; sense SEQ NO: 25, antisense SEQ NO: 26 (sense UAAGAGGACGCAGGCAUACAAG; antisense CUUGUAUGCCUGCGUCCUCUUA; chemistry not given here)",Relative Cell Growth,[1]; n=9,0.9551
same,Relative Sub G1,[2],1.099
same,Relative Apoptotic cell,[3],1.004
"BART18-3p: EBV BART miRNA mimic, double stranded RNA; sense SEQ NO: 39, antisense SEQ NO: 40 (sense UAUCGGAAGUUUGGGCUUCGUC; antisense GACGAAGCCCAAACUUCCGAUA; chemistry not given here)",Relative Cell Growth,[1]; n=9,1.393
same,Relative Sub G1,[2],0.9963
same,Relative Apoptotic cell,[3],0.8705
